Assays:
[1] = for vapor or sublimation pressure: Transpiration method
[2] = Molar enthalpy of transition or fusion; settings: Crystal; DSC

c1ccc(-n2c3ccccc3c3ccccc32)cc1 [N-phenylcarbazole]
[1]
Settings	Glass transition temperature [°C]	Normal melting temperature [°C]	vapor or sublimation pressure [kPa]
330.1 K, Crystal	–	–	9.2e-06
336.4 K, Crystal	–	–	2.01e-05
343.5 K, Crystal	–	–	4.67e-05
349.2 K, Crystal	–	–	9.26e-05
350 K, Metastable liquid	–	–	0.000128
356.1 K, Crystal	–	–	0.00019
356.1 K, Metastable liquid	–	–	0.000224
362.8 K, Crystal	–	–	0.0003947
362.8 K, Metastable liquid	–	–	0.000395
368.5 K, Metastable liquid	–	–	0.000657
372.4 K, Liquid	–	–	0.000913
377.3 K, Liquid	–	–	0.001342
Crystal, DTA	–	94.8	–
Glass, DSC	-18.3	–	–

Settings	Molar enthalpy of transition or fusion [kcal/mol]
[2]	4.64
